Numbered stars: 1 amine (or outer) side, 2 acyl side, 3 side chain; on linkers, the order of the positions; unused ones are H or OH. Peptide text beside a SMILES is read from it. * marks the point of attachment. C20 diacid = O=C(O)CCCCCCCCCCCCCCCCCCC(=O)*; γGlu = O=C(O)[C@H](CCC(=O)[*:2])N[*:1]
Tests used:
[1] = Solubility in 100 mM glycylglycine buffer at pH 4.0 incubated for 18 hrs by UPLC analysis; assay type: physicochemical
Rattus norvegicus [2] = test: Reduction in food intake in Sprague-Dawley rat at 3 nmol/kg measured 0 to 24 hrs post dose relative to control; assay type: functional; parameters: scale not given: the % may be the effect or the level left
[3] = Solubility in 100 mM bistrispropane buffer at pH 8.0 incubated for 18 hrs by UPLC analysis; assay type: physicochemical
[4] = Stability in pH 7.5 buffer assessed as compound recovery at 1 uM by Thioflavin T based fluorescence assay; assay type: physicochemical; conditions: read-out: Drug recovery
[5] = Solubility in 100 mM bistrispropane buffer at pH 7.5 incubated for 18 hrs by UPLC analysis; assay type: physicochemical
Calcitonin receptor [6] = target: T1, Calcitonin receptor (Homo sapiens, UniProt P30988); test: Agonist activity at human calcitonin receptor expressed in BHK570 cells assessed as increase in intracellular cAMP concentration incubated for 3 hrs in presence of 10% FBS by CRE luciferase reporter gene assay; assay type: functional, cell-based
T1 sequence (P30988 whole entry): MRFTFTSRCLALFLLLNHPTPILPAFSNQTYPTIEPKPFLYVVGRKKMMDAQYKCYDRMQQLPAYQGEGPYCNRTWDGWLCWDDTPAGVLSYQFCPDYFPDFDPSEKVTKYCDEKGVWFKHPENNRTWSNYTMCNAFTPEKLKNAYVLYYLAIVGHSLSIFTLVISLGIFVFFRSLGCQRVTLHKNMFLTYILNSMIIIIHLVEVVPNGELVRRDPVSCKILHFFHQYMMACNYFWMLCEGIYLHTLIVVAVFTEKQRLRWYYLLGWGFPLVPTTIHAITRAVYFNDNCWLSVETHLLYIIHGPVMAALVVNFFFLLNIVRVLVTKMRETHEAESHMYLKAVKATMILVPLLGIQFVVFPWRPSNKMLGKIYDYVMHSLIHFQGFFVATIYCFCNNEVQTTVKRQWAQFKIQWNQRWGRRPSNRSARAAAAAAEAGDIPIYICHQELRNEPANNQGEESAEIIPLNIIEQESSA

Rattus norvegicus [7] = test: Reduction in food intake in Sprague-Dawley rat at 3 nmol/kg measured 24 to 48 hrs post dose relative to control; assay type: functional; parameters: scale not given: the % may be the effect or the level left
[8] = target: T2, Amylin receptor AMY3; CALCR/RAMP3 (Homo sapiens, UniProt O60896+P30988); test: Agonist activity at human amylin receptor expressed in BHK570 cells co-expressing RAMP3 assessed as increase in intracellular cAMP concentration incubated for 3 hrs in presence of 10% FBS by CRE luciferase reporter gene assay; assay type: functional, cell-based
T2 sequence (P30988 whole entry): T1 sequence (P30988 whole entry)
T2 sequence (O60896 whole entry): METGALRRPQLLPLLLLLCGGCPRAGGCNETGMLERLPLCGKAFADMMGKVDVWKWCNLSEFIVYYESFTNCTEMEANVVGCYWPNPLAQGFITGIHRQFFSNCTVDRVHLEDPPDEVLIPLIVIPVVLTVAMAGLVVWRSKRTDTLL

[9] = Solubility in 100 mM bistrispropane buffer at pH 7.0 incubated for 18 hrs by UPLC analysis; assay type: physicochemical
[10] = Solubility in 100 mM bistrispropane buffer at pH 6.0 incubated for 18 hrs by UPLC analysis; assay type: physicochemical
Calcitonin receptor [11] = target: T1, Calcitonin receptor; test: Agonist activity at human calcitonin receptor expressed in BHK570 cells assessed as increase in intracellular cAMP concentration incubated for 3 hrs in absence of albumin by CRE luciferase reporter gene assay; assay type: functional, cell-based
[12] = Solubility in 100 mM glycylglycine buffer at pH 3.0 incubated for 18 hrs by UPLC analysis; assay type: physicochemical
[13] = Stability in pH 7.5 buffer assessed as lag time for fibril formation at 1 uM by Thioflavin T based fluorescence assay; assay type: physicochemical; conditions: pH 7.5, 1 µM
[14] = target: T2, Amylin receptor AMY3; CALCR/RAMP3; test: Agonist activity at human amylin receptor expressed in BHK570 cells co-expressing RAMP3 assessed as increase in intracellular cAMP concentration incubated for 3 hrs in absence of albumin by CRE luciferase reporter gene assay; assay type: functional, cell-based
[15] = Solubility in 100 mM bistrispropane buffer at pH 6.5 incubated for 18 hrs by UPLC analysis; assay type: physicochemical

Compound	solubility at 18 h [1] [µM]	solubility at 18 h [3] [µM]	remaining at 1 µM [4] [%]	solubility at 18 h [5] [µM]	EC50 (Calcitonin receptor [6]) [nM]	EC50 [8] [nM]	solubility at 18 h [9] [µM]	solubility at 18 h [10] [µM]	EC50 (Calcitonin receptor [11]) [nM]	solubility at 18 h [12] [µM]	Time [13] [h]	EC50 [14] [nM]	solubility at 18 h [15] [µM]	Activity (Rattus norvegicus [2]) [%]	Activity (Rattus norvegicus [7]) [%]
CC(C)C[C@H](NC(=O)[C@H](C)NC(=O)[C@H](C)NC(=O)[C@@H](NC(=O)[C@H](CO)NC(=O)[C@H](CC(C)C)NC(=O)[C@H](CCC(=O)O)NC(=O)[C@H](CO)NC(=O)[C@H](C)NC(=O)CC[C@H](NC(=O)CCCCCCCCCCCCCCCCCCC(=O)O)C(=O)O)[C@@H](C)O)C(=O)NCC(=O)N[C@@H](CCCNC(=N)N)C(=O)N[C@@H](CC(C)C)C(=O)N[C@@H](CO)C(=O)N[C@@H](C)C(=O)N[C@@H](CCC(=O)O)C(=O)N[C@@H](CC(C)C)C(=O)N[C@@H](Cc1cnc[nH]1)C(=O)N[C@@H](CCC(=O)O)C(=O)N[C@@H](CC(C)C)C(=O)N[C@@H](C)C(=O)N[C@H](C(=O)N[C@@H](Cc1ccc(O)cc1)C(=O)N1CCC[C@H]1C(=O)N[C@@H](CCCNC(=N)N)C(=O)N[C@H](C(=O)N[C@@H](CCC(=O)O)C(=O)N[C@H](C(=O)NCC(=O)N[C@@H](CO)C(=O)NCC(=O)N[C@@H](CO)C(=O)N[C@@H](Cc1ccc(O)cc1)C(N)=O)[C@@H](C)O)[C@@H](C)O)[C@@H](C)O ({C20 diacid-γGlu}-ASELSTAALGRLSAELHELATYPRTETGSGSY-NH2)	≥ 200	≥ 200	100	≥ 200	0.071	0.093	≥ 200	≥ 200	0.029	≥ 200	> 45	0.032	≥ 200	49	56
CC(C)C[C@H](NC(=O)CNC(=O)[C@H](CO)NC(=O)[C@H](C)NC(=O)CC[C@H](NC(=O)CCCCCCCCCCCCCCCCCCC(=O)O)C(=O)O)C(=O)N[C@@H](CO)C(=O)N[C@H](C(=O)N[C@@H](C)C(=O)N[C@H](C(=O)N[C@@H](CC(C)C)C(=O)NCC(=O)N[C@@H](CCCNC(=N)N)C(=O)N[C@@H](CC(C)C)C(=O)N[C@@H](CO)C(=O)N[C@@H](CCC(N)=O)C(=O)N[C@@H](CCC(=O)O)C(=O)N[C@@H](CC(C)C)C(=O)N[C@@H](Cc1cnc[nH]1)C(=O)N[C@@H](CCC(=O)O)C(=O)N[C@@H](CC(C)C)C(=O)N[C@@H](CCC(N)=O)C(=O)N[C@H](C(=O)N[C@@H](CC(C)C)C(=O)N[C@@H](CCC(N)=O)C(=O)N[C@H](C(=O)N[C@@H](Cc1ccc(O)cc1)C(=O)N1CCC[C@H]1C(=O)N[C@@H](CCCNC(=N)N)C(=O)N[C@H](C(=O)N[C@@H](CCC(=O)O)C(=O)N[C@H](C(=O)NCC(=O)N[C@@H](CO)C(=O)N[C@@H](CCC(N)=O)C(=O)N[C@H](C(=O)N[C@@H](Cc1ccc(O)cc1)C(N)=O)[C@@H](C)O)[C@@H](C)O)[C@@H](C)O)[C@@H](C)O)[C@@H](C)O)C(C)C)[C@@H](C)O ({C20 diacid-γGlu}-ASGLSTAVLGRLSQELHELQTLQTYPRTETGSQTY-NH2)		≥ 200	2	≥ 200	0.099	0.185	≥ 200	≥ 200	0.045	≥ 200	8	0.054	≥ 200	25	10
CC(C)C[C@H](NC(=O)CC[C@H](NC(=O)CCCCCCCCCCCCCCCCCCC(=O)O)C(=O)O)C(=O)N[C@@H](CO)C(=O)NCC(=O)N[C@@H](CC(C)C)C(=O)N[C@@H](CO)C(=O)N[C@H](C(=O)N[C@@H](C)C(=O)N[C@H](C(=O)N[C@@H](CC(C)C)C(=O)NCC(=O)N[C@@H](CCCNC(=N)N)C(=O)N[C@@H](CC(C)C)C(=O)N[C@@H](CO)C(=O)N[C@@H](CCC(N)=O)C(=O)N[C@@H](CCC(=O)O)C(=O)N[C@@H](CC(C)C)C(=O)N[C@@H](Cc1cnc[nH]1)C(=O)N[C@@H](CCC(=O)O)C(=O)N[C@@H](CC(C)C)C(=O)N[C@@H](CCC(N)=O)C(=O)N[C@H](C(=O)N[C@@H](Cc1ccc(O)cc1)C(=O)N1CCC[C@H]1C(=O)N[C@@H](CCCNC(=N)N)C(=O)N[C@H](C(=O)N[C@@H](CCC(=O)O)C(=O)N[C@H](C(=O)NCC(=O)N[C@@H](CO)C(=O)N[C@@H](CCC(N)=O)C(=O)N[C@H](C(=O)N[C@@H](Cc1ccc(O)cc1)C(N)=O)[C@@H](C)O)[C@@H](C)O)[C@@H](C)O)[C@@H](C)O)C(C)C)[C@@H](C)O ({C20 diacid-γGlu}-LSGLSTAVLGRLSQELHELQTYPRTETGSQTY-NH2)		≥ 200	100	≥ 200	0.073	0.14	≥ 200	≥ 200		≥ 200	> 45	0.031	≥ 200	36	21

Now those with a lower EC50 (Calcitonin receptor [6]), led by results:

solubility at 18 h [1] [µM]	solubility at 18 h [3] [µM]	remaining at 1 µM [4] [%]	solubility at 18 h [5] [µM]	EC50 (Calcitonin receptor [6]) [nM]	EC50 [8] [nM]	solubility at 18 h [9] [µM]	solubility at 18 h [10] [µM]	EC50 (Calcitonin receptor [11]) [nM]	solubility at 18 h [12] [µM]	Time [13] [h]	EC50 [14] [nM]	solubility at 18 h [15] [µM]	Compound	Activity (Rattus norvegicus [2]) [%]	Activity (Rattus norvegicus [7]) [%]
≥ 200	≥ 200	100	≥ 200	0.068	0.15	≥ 200	≥ 200		≥ 200	> 45		≥ 200	CC(C)C[C@H](NC(=O)CNC(=O)[C@H](CO)NC(=O)[C@H](C)NC(=O)CC[C@H](NC(=O)CCCCCCCCCCCCCCCCCCC(=O)O)C(=O)O)C(=O)N[C@@H](CO)C(=O)N[C@H](C(=O)N[C@@H](C)C(=O)N[C@@H](C)C(=O)N[C@@H](CC(C)C)C(=O)NCC(=O)N[C@@H](CCCNC(=N)N)C(=O)N[C@@H](CC(C)C)C(=O)N[C@@H](CO)C(=O)N[C@@H](CCC(N)=O)C(=O)N[C@@H](CCC(=O)O)C(=O)N[C@@H](CC(C)C)C(=O)N[C@@H](Cc1cnc[nH]1)C(=O)N[C@@H](CCC(=O)O)C(=O)N[C@@H](CC(C)C)C(=O)N[C@@H](CCC(=O)O)C(=O)N[C@H](C(=O)N[C@@H](Cc1ccc(O)cc1)C(=O)N1CCC[C@H]1C(=O)N[C@@H](CCCNC(=N)N)C(=O)N[C@H](C(=O)N[C@@H](CCC(=O)O)C(=O)N[C@H](C(=O)NCC(=O)N[C@@H](CO)C(=O)NCC(=O)N[C@H](C(=O)N[C@@H](Cc1ccc(O)cc1)C(N)=O)[C@@H](C)O)[C@@H](C)O)[C@@H](C)O)[C@@H](C)O)[C@@H](C)O ({C20 diacid-γGlu}-ASGLSTAALGRLSQELHELETYPRTETGSGTY-NH2)	27	26
≥ 200	≥ 200	100	≥ 200	0.053	0.122	≥ 200	≥ 200	0.07	≥ 200	> 45		≥ 200	CC(C)C[C@H](NC(=O)CNC(=O)[C@H](CO)NC(=O)[C@H](C)NC(=O)CC[C@H](NC(=O)CCCCCCCCCCCCCCCCCCC(=O)O)C(=O)O)C(=O)N[C@@H](CO)C(=O)N[C@H](C(=O)N[C@@H](C)C(=O)N[C@H](C(=O)N[C@@H](CC(C)C)C(=O)NCC(=O)N[C@@H](CCCNC(=N)N)C(=O)N[C@@H](CC(C)C)C(=O)N[C@@H](CO)C(=O)N[C@@H](C)C(=O)N[C@@H](CCC(=O)O)C(=O)N[C@@H](CC(C)C)C(=O)N[C@@H](Cc1cnc[nH]1)C(=O)N[C@@H](CCC(=O)O)C(=O)N[C@@H](CC(C)C)C(=O)N[C@@H](C)C(=O)N[C@H](C(=O)N[C@@H](Cc1ccc(O)cc1)C(=O)N1CCC[C@H]1C(=O)N[C@@H](CCCNC(=N)N)C(=O)N[C@H](C(=O)N[C@@H](CCC(=O)O)C(=O)N[C@H](C(=O)NCC(=O)N[C@@H](CO)C(=O)NCC(=O)N[C@H](C(=O)N[C@@H](Cc1ccc(O)cc1)C(N)=O)[C@@H](C)O)[C@@H](C)O)[C@@H](C)O)[C@@H](C)O)C(C)C)[C@@H](C)O ({C20 diacid-γGlu}-ASGLSTAVLGRLSAELHELATYPRTETGSGTY-NH2)	26	28

— ChEMBL document CHEMBL4420076, “Amylin and calcitonin receptor agonist” (2017)
